Test results from patent US8309593B2, “2-acylaminopropoanol-type glucosylceramide synthase inhibitors” (Genzyme Corporation, priority 2008, dated 2012).

These compounds were tested on GM3 (assay: GM3 Elisa assay). Conditions: Table 3 (title: IC 50 Values); read-out: IC50_uM_Mean.
Assay type: cell-based
Procedure: B16-FO cells from ATCC (American Tissue Culture Collection) were grown in DMEM media (ATCC) with 10% Fetal Bovine Serum (Hyclone) and Pen/Step/Glutamine (Biowhittaker). 4000 cells per well were plated on collagen coated plates (BD) and allowed to attach for 6 hours in an incubator (37 degrees, 5% CO2). After 6 hours the compounds and controls were added to the wells, the plates mixed and returned to the incubator for 2 days. Day of assay the cells were fixed for 20 minutes with 1% formaldehyde and then washed with Tris Buffered Saline (TBS) 3 times, 150 μl of TBS was left in the wells and 50 μl of goat serum (Invitrogen) was added, the plates mixed and incubated for 1 hour at room temperature. The plates were flicked and the cells incubated with the monoclonal Antibody to GM3 (NeuAc) (Cosmo) for 45 minutes as room temperature. The plates were then washed 3 times with TBS, leaving 150 μl of TBS in the wells and Peroxidase AffinPure F (ab′) 2 frag Gt Anti-mouse IgM, μ Chain Specific (Jackson Immuno Research) was added in 50 μl, the plates mixed and incubated for 45 minutes at room temperature. The plates were washed 3 times with TBS, flicked and blotted and 100 μl of Quantablu (Pierce) was added to the wells and incubated for 1 hour then read on a Fluorometer at Ex 325 and Em 420. The data was then analyzed using standard programs.

**Q.** For `O=C(CCCCCC(=O)c1ccc(F)cc1)N[C@H](CN1CC[C@@H](F)C1)[C@@H](O)c1ccc2c(c1)OCCO2` [Compound 565], which IC50 is on record?
**A.** Its IC50 is at most 100 nM.

**Q.** Which IC50 does the source give for `Cc1nccn1C[C@@H](NC(=O)CCCCCC(=O)c1ccc(F)cc1)[C@@H](O)c1ccc2c(c1)OCCO2` [Compound 569] here?
**A.** Its IC50 is 3000 to 10000 nM.

**Q.** Which IC50 does the source give for `O=C(CCCCS(=O)(=O)C1CCCCC1)N[C@H](CN1CC[C@@H](F)C1)[C@@H](O)c1ccc(OCc2ccccc2)cc1` [Compound 572] here?
**A.** The IC50 was 100 to 1000 nM.

**Q.** Which IC50 does the source give for `O=C(CCCCCC1CCOCC1)N[C@H](CN1CC[C@@H](F)C1)[C@@H](O)c1cccc(OCc2ccccc2)c1` [Compound 574] here?
**A.** The IC50 was 100 to 1000 nM.

**Q.** Which IC50 does the source give for `O=C(CCCCOC1CCOCC1)N[C@H](CN1CC[C@@H](F)C1)[C@@H](O)c1ccc(CCc2ccccc2)cc1` [Compound 575] here?
**A.** The IC50 was 100 to 1000 nM.

**Q.** With `CCCCOc1ccc([C@H](O)[C@@H](CN2CC[C@@H](F)C2)NC(=O)CCCCCCCOC)cc1` [Compound 584] as the compound, how does the IC50 read?
**A.** Its IC50 is 100 to 1000 nM.

**Q.** With `CCCCOc1ccc([C@H](O)[C@@H](CN2CC[C@H](O)C2)NC(=O)CCCCCCCOC)cc1` [Compound 586] as the compound, how does the IC50 read?
**A.** The IC50 was at most 100 nM.

**Q.** `CCCCCCCC(=O)N[C@H](CN1CC(OCCC)C1)[C@H](O)c1ccc2c(c1)OCCO2` [Compound 596] was tested. Which IC50 did it give?
**A.** Its IC50 is 3000 to 10000 nM.

**Q.** With `COc1ccc(OCC[C@H](O)N[C@H](CN2C(C)CCCC2C)C(O)c2ccc3c(c2)OCCO3)cc1` (some centres unmarked) [Compound 598] as the compound, how does the IC50 read?
**A.** Its IC50 is 3000 to 10000 nM.

**Q.** `COc1ccc(C(=O)CCCCCC(=O)N[C@H](CN2C(C)CCC[C@H]2C)[C@@H](O)c2ccc3c(c2)OCCO3)cc1` (some centres unmarked) [Compound 602] was tested. Which IC50 did it give?
**A.** The IC50 was 3000 to 10000 nM.

**Q.** Which IC50 does the source give for `O=C(N[C@H](CN1CCCC1)[C@@H](O)c1ccc2c(c1)OCCO2)C1(C(F)(F)F)CCC1` [Compound 614] here?
**A.** The IC50 was 3000 to 10000 nM.

**Q.** With `O=C(CC(F)(F)F)N[C@H](CN1CCCC1)[C@@H](O)c1ccc2c(c1)OCCO2` [Compound 624] as the compound, how does the IC50 read?
**A.** The IC50 was 3000 to 10000 nM.

**Q.** `O=C(CCCCCC(=O)c1ccc(F)cc1)N[C@H](CN1CCCC1)[C@@H](O)c1ccc2c(c1)OCCO2` [Compound 628] was tested. Which IC50 did it give?
**A.** The IC50 was at most 100 nM.

**Q.** `CC(O)(CCCCCC(=O)N[C@H](CN1CCCC1)[C@@H](O)c1ccc2c(c1)OCCO2)C1CCCC1` (some centres unmarked) [Compound 633] was tested. Which IC50 did it give?
**A.** Its IC50 is 100 to 1000 nM.

**Q.** Which IC50 does the source give for `O=C(CCCCCCOCC(F)(F)F)N[C@H](CN1CCCC1)[C@@H](O)c1ccc2c(c1)OCCO2` [Compound 634] here?
**A.** The IC50 was 100 to 1000 nM.

**Q.** With `O=C(N[C@H](CN1CCCC1)[C@H](O)c1ccc2c(c1)OCCO2)[C@H]1CC[C@@H](C(=O)c2ccc(F)cc2)C1` [Compound 635] as the compound, how does the IC50 read?
**A.** Its IC50 is 3000 to 10000 nM.

**Q.** `CC(O)(CCCCCC(=O)N[C@H](CN1CCCC1)[C@@H](O)c1ccc2c(c1)OCCO2)C1CCCCC1` (some centres unmarked) [Compound 641] was tested. Which IC50 did it give?
**A.** The IC50 was at most 100 nM.

**Q.** Which IC50 does the source give for `Cc1noc(CCCCC(=O)N[C@@H](CN2CCCC2)C(O)c2ccc3c(c2)OCCO3)n1` (some centres unmarked) [Compound 652] here?
**A.** The IC50 was 3000 to 10000 nM.

**Q.** How did the IC50 turn out when `O=C(CCCCCC(=O)c1ccc(F)cc1)NC(CN1CC[C@H](O)C1)[C@H](O)c1ccc2c(c1)OCCO2` (some centres unmarked) [Compound 653] was run?
**A.** Its IC50 is at most 100 nM.

**Q.** Which IC50 does the source give for `O=C(CCCOc1ccc(F)cc1)N[C@@H](CN1CC[C@H](O)C1)[C@H](O)c1ccc2c(c1)OCCO2` [Compound 656] here?
**A.** Its IC50 is at most 100 nM.

**Q.** How did the IC50 turn out when `CCCCOc1ccc([C@@H](O)[C@@H](CN2CCC(F)C2)NC(=O)CCCCC(=O)c2ccc(F)cc2)cc1` (some centres unmarked) [Compound 658] was run?
**A.** Its IC50 is 100 to 1000 nM.

**Q.** How did the IC50 turn out when `CC(=O)CCCCCC(=O)N[C@H](CN1CCCC1)[C@@H](O)c1ccc(OC(F)(F)F)cc1` [Compound 665] was run?
**A.** Its IC50 is 3000 to 10000 nM.

**Q.** `COc1ccc(C(=O)CCCCCC(=O)N[C@H](CN2CCCC2)[C@@H](O)c2ccc(OC(F)(F)F)cc2)cc1` [Compound 666] was tested. Which IC50 did it give?
**A.** The IC50 was 100 to 1000 nM.

**Q.** With `CCCCCCCC(=O)N[C@H](CN1CCCC1)[C@@H](O)c1ccc(OC(F)(F)F)cc1` [Compound 667] as the compound, how does the IC50 read?
**A.** Its IC50 is 100 to 1000 nM.

**Q.** For `COc1cc([C@H](O)[C@@H](CN2CCCC2)NC(=O)CCCCCC(C)=O)cc(OC)c1OC` [Compound 671], which IC50 is on record?
**A.** The IC50 was 3000 to 10000 nM.

**Q.** With `COc1ccc(OCCC(=O)N[C@@H](CN2CCCC2)[C@@H](O)c2ccc3c(c2)OCCO3)cc1` [Compound 674] as the compound, how does the IC50 read?
**A.** Its IC50 is 3000 to 10000 nM.

**Q.** How did the IC50 turn out when `COc1ccc(OCCC(=O)N[C@@H](CN2CCCC2)[C@@H](O)c2ccc3c(c2)OCCO3)cc1` [Compound 675] was run?
**A.** Its IC50 is 3000 to 10000 nM.

**Q.** Which IC50 does the source give for `COc1ccc(OCCC(=O)N[C@H](CN2CCCC2)[C@@H](O)c2ccc3c(c2)OCCO3)cc1` [Compound 676] here?
**A.** Its IC50 is 3000 to 10000 nM.

**Q.** `CCCCCCCCCCCCCCCCC(=O)N[C@H](CN(C)Cc1ccco1)[C@H](O)c1ccc2c(c1)OCCO2` [Compound 683] was tested. Which IC50 did it give?
**A.** The IC50 was 3000 to 10000 nM.

**Q.** `CCCCCCCCCCCCCCCC(=O)N[C@H](CN(C)C(C)C)[C@H](O)c1ccc2c(c1)OCCO2` [Compound 684] was tested. Which IC50 did it give?
**A.** Its IC50 is 100 to 1000 nM.

**Q.** For `CCCCCCCCCCCCCCCC(=O)N[C@H](CN(C)C1CCCC1)C(O)c1ccc2c(c1)OCCO2` (some centres unmarked) [Compound 685], which IC50 is on record?
**A.** Its IC50 is 3000 to 10000 nM.

These compounds were tested on jck mice (assay: PKD mouse model (jck mice, compound in feed)). Conditions: female jck mice, 0.225% Compound A in feed, 26-64 days of age.
Assay type: in vivo
Procedure: jck mice was administered Compound A ad libitum in feed (0.225% Compound A mixed with a standard diet chow in powdered format) from 26-64 days of age. Control jck mice were fed a control powdered diet from 26-64 days of age. At 63 days of age, animals were transferred to metabolic cages for 24 hour urine collection. At 64 days of age, animals were sacrificed by CO2 administration. Blood was collected by heart puncture for serum isolation. Kidneys were isolated and bisected; half of each kidney was fixed in 4% paraformaldehyde in PBS overnight for paraffin embedding and H&E staining.
Total body weight and kidney weight were determined at sacrifice.
Cyst volume was measured by quantitating the percentage of cystic area in histological sections of kidneys from the treated and control animals, multiplied by the kidney/body weight ratio.
Blood urea nitrogen (BUN) levels were determined in serum samples derived from animals at sacrifice.

**Q.** What does the source list for `CCCCCCCCC(=O)N[C@H](CN1CCCC1)[C@H](O)c1ccc2c(c1)OCCO2` [Compound A, N-((1R,2R)-1-(2,3-dihydrobenzo[b][1,4]dioxin-6-yl)-1-hydroxy-3-(pyrrolidin-1-yl)propan-2-yl)nonanamide]?
**A.** BUN: 34.67 ± 9.41 mg/dL; Body weight: 15.93 ± 1.65 g; Cystic volume: 0.58 ± 0.29 % BW; K/BW ratio: 3.57 ± 0.58 %

Same assay, conditions: jck mice, 0.225% in feed, 26-64 days of age, at sacrifice, vs control; p-value<0.05, two-tailed t-test

**Q.** How did the total body weight turn out when `CCCCCCCCC(=O)N[C@H](CN1CCCC1)[C@H](O)c1ccc2c(c1)OCCO2` [Compound A, N-((1R,2R)-1-(2,3-dihydrobenzo[b][1,4]dioxin-6-yl)-1-hydroxy-3-(pyrrolidin-1-yl)propan-2-yl)nonanamide] was run?
**A.** Its total body weight is “statistically significant decrease”.

Same assay, conditions: jck mice, 0.225% in feed, 26-64 days of age; percentage cystic area x kidney/body weight ratio, vs control; p-value<0.05

**Q.** How did the cyst volume turn out when `CCCCCCCCC(=O)N[C@H](CN1CCCC1)[C@H](O)c1ccc2c(c1)OCCO2` [Compound A, N-((1R,2R)-1-(2,3-dihydrobenzo[b][1,4]dioxin-6-yl)-1-hydroxy-3-(pyrrolidin-1-yl)propan-2-yl)nonanamide] was run?
**A.** Its cyst volume is “significant decrease”.

Same assay, conditions: jck mice, 0.225% in feed, 26-64 days of age; serum at sacrifice, vs untreated controls; p-value<0.05

**Q.** With `CCCCCCCCC(=O)N[C@H](CN1CCCC1)[C@H](O)c1ccc2c(c1)OCCO2` [Compound A, N-((1R,2R)-1-(2,3-dihydrobenzo[b][1,4]dioxin-6-yl)-1-hydroxy-3-(pyrrolidin-1-yl)propan-2-yl)nonanamide] as the compound, how does the “Blood urea nitrogen (BUN) levels” value read?
**A.** Its value is “significant reduction”.

Same assay, conditions: jck mice, 0.225% in feed; as measured by kidney/body weight ratio and cyst volume; males and females

**Q.** `CCCCCCCCC(=O)N[C@H](CN1CCCC1)[C@H](O)c1ccc2c(c1)OCCO2` [Compound A, N-((1R,2R)-1-(2,3-dihydrobenzo[b][1,4]dioxin-6-yl)-1-hydroxy-3-(pyrrolidin-1-yl)propan-2-yl)nonanamide] was tested. Which cystic disease did it give?
**A.** Its cystic disease is “statistically significant reduction”.

Same assay, conditions: jck mice, 0.225% in feed; treated animals relative to controls; males and females

**Q.** `CCCCCCCCC(=O)N[C@H](CN1CCCC1)[C@H](O)c1ccc2c(c1)OCCO2` [Compound A, N-((1R,2R)-1-(2,3-dihydrobenzo[b][1,4]dioxin-6-yl)-1-hydroxy-3-(pyrrolidin-1-yl)propan-2-yl)nonanamide] was tested. Which renal function did it give?
**A.** The renal function was “improved renal function”.

Same assay, conditions: male jck mice, 0.225% Compound A in feed, 26-64 days of age

**Q.** Which BUN does the source give for `CCCCCCCCC(=O)N[C@H](CN1CCCC1)[C@H](O)c1ccc2c(c1)OCCO2` [Compound A, N-((1R,2R)-1-(2,3-dihydrobenzo[b][1,4]dioxin-6-yl)-1-hydroxy-3-(pyrrolidin-1-yl)propan-2-yl)nonanamide] here?
**A.** Its BUN is 39.25 ± 10.70 mg/dL.

**Q.** And the Body weight?
**A.** Its Body weight is 18.43 ± 1.82 g.

**Q.** What about the Cystic volume of the same compound?
**A.** Its Cystic volume is 0.88 ± 0.23 % BW.

**Q.** And the K/BW ratio?
**A.** Its K/BW ratio is 4.46 ± 0.46 %.
